In patent publication EP0804408B1, “NOVEL 4-SUBSTITUTED 2,6-DI-TERT-BUTYLPHENOL COMPOUNDS, PHARMACEUTICAL COMPOSITIONS CONTAINING SAME AND PREPARATION METHOD THEREFOR” (priority 1994, dated 1996):
Marks after values point to notes of the source that are not given here.

Test system: NO-synthase inductible (iNOS)
Test: iNOS induction test: nitrites in RAW264.7 supernatants by Griess reaction after nitrate reduction
Type: cell-based, murins
Source text: Cette hypothèse a été contrôlée en dosant les nitrites dans des surnageants de culture de macrophages murins de lignées activées en présence de AVF1. Les nitrites ont été dosés par la réaction de Griess après réduction de tous le nitrates grâce à la nitrate réductase de Pseudomonas oleoverans (Granger et al., J. Immunol., 1991, 146, 1294-1302). La spécificité de la réaction a été prouvée par l'emploi d'un inhibiteur spécifique de la synthèse du monoxyde d'azote, la N^G-monométhyl-L-arginine (L-NMMA).
Le test d'induction iNOS consiste à ensemencer les macrophages RAW264.7 dans des plaques à 24 puits à raison de 1 x 10^6 sous 1,6 ml. Après 24 heures de culture permettant d'obtenir un tapis cellulaire complet, AVF1, dilué de raison 10 dans des des doses ne donnant pas de toxicité cellulaire (de 10^-6 à 10^-8 %), est ajouté dans 100 µl par cupule soit sur des macrophages sans activateur, avec ou sans l'inhibiteur de iNOS (action directe du produit sur les macrophages) soit en présence des inducteurs, avec ou sans inhibiteur (action du produit sur des macrophages activés).
Après 24 heures de culture, les surnageants sont prélevés, centrifugés 10 minutes à 100 g à température ambiantes pour éliminer les éventuels débris cellulaires puis utilisés pour le dosage des nitrites.
Deux volumes des surnageants clarifiés sont réduits en présence d'un volume d'une suspension de Pseudomonas oleovorans à 100 mg/ml et un volume de D-MEM sans rouge de phénol. Après une incubation de 90 minutes à 37°C sans agitation, les mélanges sont centrifugés 5 minutes à 4 000 g pour éliminer les bactéries et dilués au 1/5 et au 1/10 en eau distillée stérile.
100 µl des échantillons réduits et dilués sont distribués dans des séries de 2 puits dans une plaque ELISA (maxicorp, Nunc.). 200 µl du réactif de Griess (mélange ex-temporané volume à volume des solutions de sulfamide à 1,5 g/100 ml de HCl 1,2 N (87,1 mM) - réactif A - et de naphtylènediamine à 0,15 g/100 ml d'eau stérile (5,78 mM) - réactif B -) sont ajoutés.
Cent autres µl d'échantillon servant de blanc de DO sont distribués et mélangés à 200 µl d'un mélange ex-temporané volume à volume d'eau distillée et du réactif colorimétrique A.
Après 30 minutes à température ambiante à l'obscurité, la densité optique (DO) des échantillons est lue à 540 nm au lecteur de plaque pour ELISA.
• Les contrôles du système d'induction iNOS sont composés de : • . Témoin cellules consistant en des macrophages ne recevant que du milieu de culture. • . Témoin d'induction consistant en des macrophages traités par 100 µl de lipopolysaccharide (LPS à 4 µg/ml, Difco) et par 100 µl d'interféron-γ recombinant (IFN-γ à 1 µU/ml, Boerhinger-Mannheim) afin d'activer la iNOS (Schmidt et al., Mol. Pharmacol., 1992, 41, 614-624). Les solutions mères de LPS et de IFN-γont été conservées respectivement à +4°C et à -20°C avant utilisation. • . Témoin d'inhibition spécifique pour prouver que les nitrites dosés proviennent de l'activation de la iNOS. Il consiste à incorporer à la culture un inhibiteur spécifique, la L-NMMA (N^G-monométhyl-L-arginine, Calbiochem) (Hibbs et al., Science, 1987, 235, 473-476) à des concentrations de raison 10 allant de 3 à 300 µM. Cette solution a été conservée sous parties aliquotes à -20°C avant utilisation. • Les contrôles de la réaction de Greiss sont composés de : • . Une solution de nitrate de sodium qui permet de contrôler l'activité nitrate-réductase des bactéries. • . Une gamme étalon de nitrite de sodium qui permet de doser les nitrites dans les échantillons. • Le blanc de DO de la gamme étalon contenant 100 µl d'eau distillée et 200 µl du mélange des réactifs A et B.

[1] = AVF1 1 x 10^-6 % (10 nM), IFNγ + LPS + L-NMMA (3 µM)
[2] = AVF1 1 x 10^-6 % (10 nM), IFNγ + LPS + L-NMMA (30 µM)
[3] = AVF1 1 x 10^-6 % (10 nM), IFNγ + LPS + L-NMMA (300 µM)
[4] = AVF1 1 x 10^-7 % (1 nM), IFNγ + LPS + L-NMMA (30 µM)
[5] = AVF1 1 x 10^-7 % (1 nM), IFNγ + LPS + L-NMMA (300 µM)
[6] = AVF1 1 x 10^-8 % (0,1 nM), IFNγ + LPS + L-NMMA (3 µM)
[7] = AVF1 1 x 10^-8 % (0,1 nM), IFNγ + LPS + L-NMMA (300 µM)

Structure (SMILES): CC(C)(C)c1cc(C(=O)OCCOCCOCCOCCOCCOCCOCCOCCO)cc(C(C)(C)C)c1O [AVF1, 3,5-di-t-butyl-4-hydroxybenzoate d'octaoxyéthylèneglycol]
- Concentration moyenne en nitrites en µM sur 2 échantillons (AVF1 1 x 10^-6 % (10 nM), IFNγ + LPS): 20,9 µM
- Concentration moyenne en nitrites en µM sur 2 échantillons [1]: 5,3 µM
- Pourcentage d'inhibition de la production de nitrite [1]: 74%
- Concentration moyenne en nitrites en µM sur 2 échantillons [2]: 6,3 µM
- Pourcentage d'inhibition de la production de nitrite [2]: 70%
- Concentration moyenne en nitrites en µM sur 2 échantillons [3]: 4,8 µM
- Pourcentage d'inhibition de la production de nitrite [3]: 77%
- Concentration moyenne en nitrites en µM sur 2 échantillons (AVF1 1 x 10^-6 % (10 nM), cells: Milieu (no activator)): 5,0* µM
- Concentration moyenne en nitrites en µM sur 2 échantillons (AVF1 1 x 10^-7 % (1 nM), IFNγ + LPS): 19,5 µM
- Concentration moyenne en nitrites en µM sur 2 échantillons (AVF1 1 x 10^-7 % (1 nM), IFNγ + LPS + L-NMMA (3 µM)): 5,1 µM
- Concentration moyenne en nitrites en µM sur 2 échantillons [4]: 4,9 µM
- Pourcentage d'inhibition de la production de nitrite [4]: 76%
- Concentration moyenne en nitrites en µM sur 2 échantillons [5]: 5,8 µM
- Pourcentage d'inhibition de la production de nitrite [5]: 72%
- Concentration moyenne en nitrites en µM sur 2 échantillons (AVF1 1 x 10^-7 % (1 nM), cells: Milieu (no activator)): 4,8* µM
- Concentration moyenne en nitrites en µM sur 2 échantillons (AVF1 1 x 10^-8 % (0,1 nM), IFNγ + LPS): 21,6 µM
- Concentration moyenne en nitrites en µM sur 2 échantillons [6]: 5,0 µM
- Pourcentage d'inhibition de la production de nitrite [6]: 76%
- Concentration moyenne en nitrites en µM sur 2 échantillons (AVF1 1 x 10^-8 % (0,1 nM), IFNγ + LPS + L-NMMA (30 µM)): 5,2 µM
- Concentration moyenne en nitrites en µM sur 2 échantillons [7]: 5,5 µM
- Pourcentage d'inhibition de la production de nitrite [7]: 74%
- Concentration moyenne en nitrites en µM sur 2 échantillons (AVF1 1 x 10^-8 % (0,1 nM), cells: Milieu (no activator)): 5,6* µM
- induction de monoxyde d'azote (NO) dans les macrophages (AVF1 from 10^-6 % downwards, non-activated macrophages, nitrites in supernatants): n'induit pas de monoxyde d'azote (NO)
- inhibition at 0.01 µM (Mus musculus, RAW264.7, AVF1 1 x 10^-6 % (10 nM), IFNγ + LPS, read-out: Pourcentage d'inhibition de la production de nitrite): 0%
- inhibition at 0.001 µM (Mus musculus, RAW264.7, AVF1 1 x 10^-7 % (1 nM), IFNγ + LPS, read-out: Pourcentage d'inhibition de la production de nitrite): 6%
- action sur le niveau de production de NO (macrophages activated by LPS + IFN-γ): n'a aucune action sur le niveau de production
